Measured values from article PMC10895674, “First-in-Class Dual EZH2-HSP90 Inhibitor Eliciting Striking Antiglioblastoma Activity In Vitro and In Vivo” (Journal of Medicinal Chemistry, 2024).
Read-outs that look alike come from different tables or passages of the source.

Key:
[1] = Pharmacokinetics IV and PO; design: species or system Rat; settings: in vivo
Procedure: Table S1: Pharmacokinetic data of compound 7
Rat IV (dose: 2 mg/kg) Rat PO (dose: 20 mg/kg)
T1/2 CL Vss AUC(0-inf) T1/2 Cmax Tmax AUC(0-inf) F
(hr) (ml/min/kg) (l/kg) (ng/mL*hr) (hr) (ng/ml) (hr) (ng/mL*hr) (%)
Sample Time (hr) Avg. S.D.

Pt3 cells = assay: ROS assay (DHR, flow cytometry); assay type: cell-based, human; settings: 48 h
Procedure: (§1) Figure 10 Compound 7 triggers ROS production from mitochondria. (A) After treatment for 48 h, cells were stained with the DHR reagent, and the fluorescent signal was estimated by flow cytometry. Treatment concentration of compound 7 was indicated. (B) Protein lysates were subjected to Western blotting using the indicated antibody. (C) After staining with MitoSOX (red) and Hoechst 33342 (blue), cellular signals were photographed and quantified D. Protein lysates were subjected to Western blotting using the indicated antibody.
(§2) Dihydrorhodamine 123 (DHR; Thermo Fisher Scientific, Waltham, MA) was used to label cellular ROS detected by the flow cytometry,[54] and the MitoSOX reagent (Thermo Fisher Scientific) was used to label mitochondrial ROS.[55]

Pt3R cells = assay: ROS assay (DHR, flow cytometry); assay type: cell-based, human; settings: 48 h
Procedure: as §1, §2

[2] = Rat IV 2 mg/kg, read-out: Drug Conc. Avg.
[3] = Rat PO 20 mg/kg, read-out: Drug Conc. Avg.

## CCN(c1cc(-c2cccc(N(C)C(=O)c3cc(C(C)C)c(O)cc3O)c2)cc(C(=O)NCc2c(C)cc(C)[nH]c2=O)c1C)C1CCOCC1 [Compound 7, 3′-(2,4-Dihydroxy-5-isopropyl-N-methylbenzamido)-N-((4,6-dimethyl-2-oxo-1,2-dihydropyridin-3-yl)methyl)-5-(ethyl(tetrahydro-2H-pyran-4-yl)amino)-4-methyl-[1,1′-biphenyl]-3-carboxamide]
[1]; Rat IV 2 mg/kg, 0.03 hr, read-out: Drug Conc. Avg.
  concentration at 0.03 hr: 2790 ng/mL
[1]; Rat IV 2 mg/kg, 0.08 hr, read-out: Drug Conc. Avg.
  concentration at 0.08 hr: 929 ng/mL
[1]; [2]
  concentration at 0.25 hr: 406 ng/mL
  concentration at 0.5 hr: 218 ng/mL
  concentration at 1 hr: 76.6 ng/mL
  concentration at 2 hr: 30.5 ng/mL
  concentration at 4 hr: 5 ng/mL
  concentration at 6 hr: 1.1 ng/mL
[1]; Rat IV, dose 2 mg/kg
  AUC(0-inf): 470 ± 32 ng·h/mL
  clearance: 81.8 ± 5.8 mL/min/kg
  half-life: 0.8 h
[1]; Rat IV, dose 2 mg/kg, read-out: Vss
  Vd: 3 ± 0.5 L/kg
[1]; Rat PO 20 mg/kg vs IV 2 mg/kg
  bioavailability: 2.3%
[1]; [3]
  concentration at 0.25 hr: 23 ng/mL
  concentration at 0.5 hr: 11.1 ng/mL
  concentration at 1 hr: 23.8 ng/mL
  concentration at 2 hr: 15.3 ng/mL
  concentration at 4 hr: 18.1 ng/mL
  concentration at 6 hr: 4 ng/mL
[1]; Rat PO 20 mg/kg, 8 hr, read-out: Drug Conc. Avg.
  concentration at 8 hr: 2.9 ng/mL
[1]; Rat PO, dose 20 mg/kg
  AUC(0-inf): 106 ± 62 ng·h/mL
  Cmax: 23.8 ± 8.9 ng/mL
  Tmax: 1 h
  half-life: 1.8 ± 0.5 h
Pt3 cells
  ROS level: increased
Pt3R cells
  ROS level: increased
